This is an account of results in patent US10160755B2 (Plexxikon Inc., priority 2015, dated 2018).

The target in one test is T1, FLT3-ITD (Homo sapiens, UniProt P36888).
T1 construct: FLT3-ITD; Invitrogen #PV6190
T1 sequence (P36888 1-993): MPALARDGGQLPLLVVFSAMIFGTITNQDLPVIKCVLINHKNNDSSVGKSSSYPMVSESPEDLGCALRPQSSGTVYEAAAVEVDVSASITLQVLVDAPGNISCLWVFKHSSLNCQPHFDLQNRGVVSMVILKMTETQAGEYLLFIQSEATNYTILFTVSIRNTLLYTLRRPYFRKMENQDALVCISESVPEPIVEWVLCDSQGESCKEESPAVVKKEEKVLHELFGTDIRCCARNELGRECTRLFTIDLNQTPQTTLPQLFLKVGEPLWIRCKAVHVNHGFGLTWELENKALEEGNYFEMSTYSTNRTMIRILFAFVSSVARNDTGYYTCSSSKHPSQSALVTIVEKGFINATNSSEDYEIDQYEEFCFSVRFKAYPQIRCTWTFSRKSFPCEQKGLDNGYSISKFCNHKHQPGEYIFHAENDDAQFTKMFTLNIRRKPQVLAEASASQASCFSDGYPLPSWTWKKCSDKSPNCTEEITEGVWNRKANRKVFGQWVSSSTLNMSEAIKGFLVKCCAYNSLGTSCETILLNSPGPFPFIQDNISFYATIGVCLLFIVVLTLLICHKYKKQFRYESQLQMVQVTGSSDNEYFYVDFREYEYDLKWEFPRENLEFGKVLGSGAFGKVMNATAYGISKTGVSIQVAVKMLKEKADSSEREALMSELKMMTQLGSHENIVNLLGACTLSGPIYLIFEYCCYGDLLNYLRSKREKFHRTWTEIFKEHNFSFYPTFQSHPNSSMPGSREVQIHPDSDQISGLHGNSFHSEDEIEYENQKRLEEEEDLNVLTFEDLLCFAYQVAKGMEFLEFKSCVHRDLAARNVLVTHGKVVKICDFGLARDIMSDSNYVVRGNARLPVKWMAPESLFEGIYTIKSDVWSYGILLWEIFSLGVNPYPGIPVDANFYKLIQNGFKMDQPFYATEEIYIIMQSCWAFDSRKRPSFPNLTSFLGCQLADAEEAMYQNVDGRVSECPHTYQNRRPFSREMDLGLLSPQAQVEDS
Put plainly: FLT3-ITD biochemical kinase assay (AlphaScreen). The gist of the method:
(§1)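 IC50 values reflect loss of AlphaScreen proximity signal (excitation 680 nm, emission 580 nm) from tyrosine phosphorylation of a biotinylated poly(Glu4-Tyr) substrate at 30 nM. ATP was 10 μM for the D835Y mutant and 100 μM for ITD. Detection used PY20 acceptor beads.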
(In general: In Alpha technology, singlet oxygen from a donor bead excites a nearby acceptor bead.)

Another test has as its target T2, FLT3-D835Y (Homo sapiens, UniProt P36888, D835Y).
T2 construct: purchased Invitrogen PV3967
T2 sequence (P36888 27-993 D835Y): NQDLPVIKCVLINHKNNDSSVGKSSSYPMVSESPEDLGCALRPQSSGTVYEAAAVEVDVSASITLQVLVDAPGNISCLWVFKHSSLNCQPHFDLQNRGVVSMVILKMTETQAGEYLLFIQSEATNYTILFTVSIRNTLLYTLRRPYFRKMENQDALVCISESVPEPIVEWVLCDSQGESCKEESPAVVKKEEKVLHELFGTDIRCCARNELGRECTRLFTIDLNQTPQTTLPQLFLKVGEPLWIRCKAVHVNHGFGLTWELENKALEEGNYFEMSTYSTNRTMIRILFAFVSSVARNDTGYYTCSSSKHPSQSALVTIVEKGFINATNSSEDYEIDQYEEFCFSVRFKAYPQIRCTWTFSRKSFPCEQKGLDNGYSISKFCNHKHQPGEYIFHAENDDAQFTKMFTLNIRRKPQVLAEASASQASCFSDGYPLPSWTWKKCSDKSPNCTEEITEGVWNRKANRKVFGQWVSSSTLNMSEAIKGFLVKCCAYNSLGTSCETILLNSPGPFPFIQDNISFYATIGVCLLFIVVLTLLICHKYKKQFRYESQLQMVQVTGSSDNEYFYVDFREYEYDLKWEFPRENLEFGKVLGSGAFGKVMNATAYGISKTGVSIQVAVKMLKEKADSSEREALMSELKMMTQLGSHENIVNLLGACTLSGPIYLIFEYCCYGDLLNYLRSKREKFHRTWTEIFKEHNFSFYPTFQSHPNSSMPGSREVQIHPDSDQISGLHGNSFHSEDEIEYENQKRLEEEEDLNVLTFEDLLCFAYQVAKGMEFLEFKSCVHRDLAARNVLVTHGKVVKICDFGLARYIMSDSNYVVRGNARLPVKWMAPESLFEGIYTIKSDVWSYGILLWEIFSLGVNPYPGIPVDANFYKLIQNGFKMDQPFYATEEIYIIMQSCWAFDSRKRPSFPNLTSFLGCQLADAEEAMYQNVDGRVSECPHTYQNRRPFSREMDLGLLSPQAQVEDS
Description: FLT3-D835Y biochemical kinase assay (AlphaScreen). The gist of the method: as §1

Turning to `FC(F)(F)Oc1cccc(-c2cnc3[nH]cc(-c4ccc5ncn(C6CCCNC6)c5c4)c3n2)c1` (stereo not drawn) [P-193, 7-[3-(3-piperidyl)benzimidazol-5-yl]-2-[3-(trifluoromethoxy)phenyl]-5H-pyrrolo[2,3-b]pyrazine], the IC50 at FLT3-ITD and against FLT3-D835Y was 0.0001 to 1 µM in each case.
With `N#Cc1cccc(C#Cc2cnc3[nH]cc(-c4ccc5ncn(C6CCCNC6)c5c4)c3c2)c1` (stereo not drawn) [P-243, 3-[2-[3-[3-(3-piperidyl)benzimidazol-5-yl]-1H-pyrrolo[2,3-b]pyridin-5-yl]ethynyl]benzonitrile], the concentration for half-maximal inhibition (IC50) against FLT3-ITD and at FLT3-D835Y was 0.0001 to 1 µM throughout.
Take `O=S1(=O)CCCCN1c1cccc(-c2cnc3[nH]cc(-c4ccc5ncn(C6CCCNC6)c5c4)c3c2)c1` (stereo not drawn) [P-224, 2-[3-[3-[3-(3-piperidyl)benzimidazol-5-yl]-1H-pyrrolo[2,3-b]pyridin-5-yl]phenyl]thiazinane 1,1-dioxide]: the IC50 against FLT3-ITD and against FLT3-D835Y was 0.0001 to 1 µM throughout.
Consider `COc1cc(-c2cnc3[nH]nc(-c4ccc5ncn(C(C)(C)C)c5c4)c3c2)ccn1` [P-272, 3-(1-(tert-butyl)-1H-benzo[d]imidazol-6-yl)-5-(2-methoxypyridin-4-yl)-1H-pyrazolo[3,4-b]pyridine], for which the IC50 against FLT3-ITD and on FLT3-D835Y was 0.0001 to 1 µM each time.
Turning to `Cn1cnc2ccc(-c3c[nH]c4ncc(-c5cnn(CC(F)(F)F)c5)cc34)cc21` [P-175, 1-methyl-6-[5-[1-(2,2,2-trifluoroethyl)pyrazol-4-yl]-1H-pyrrolo[2,3-b]pyridin-3-yl]benzimidazole], the IC50 against FLT3-ITD and at FLT3-D835Y was 0.0001 to 1 µM in each case.
For the compound `COc1ncc(-c2cnc3[nH]cc(-c4ccc5ncn(C(C)(C)C)c5c4)c3c2)cn1` [P-265, 1-(tert-butyl)-6-(5-(2-methoxypyrimidin-5-yl)-1H-pyrrolo[2,3-b]pyridin-3-yl)-1H-benzo[d]imidazole], the IC50 against FLT3-ITD and against FLT3-D835Y was 0.0001 to 1 µM in each case.
On to `CC(C)(C)n1cnc2ccc(-c3c[nH]c4ncc(-c5cccc(N6CCCS6(=O)=O)c5)nc34)cc21` [P-231, 2-[3-[7-(3-tert-butylbenzimidazol-5-yl)-5H-pyrrolo[2,3-b]pyrazin-2-yl]phenyl]-1,2-thiazolidine 1,1-dioxide], for which the IC50 on FLT3-ITD and at FLT3-D835Y was 0.0001 to 1 µM in each case.
In the case of `CC(C)(C)n1cnc2ccc(-c3c[nH]c4ncc(-c5ccc(N6CCOCC6)cc5)nc34)cc21` [P-100, 4-[4-[7-(3-tert-butylbenzimidazol-5-yl)-5H-pyrrolo[2,3-b]pyrazin-2-yl]phenyl]morpholine], the IC50 against FLT3-ITD and on FLT3-D835Y was 0.0001 to 1 µM each time.
For the compound `C#Cc1cnc2[nH]cc(-c3ccc4ncn(C5CCCNC5)c4c3)c2n1` (stereo not drawn) [P-270, 2-ethynyl-7-[3-(3-piperidyl)benzimidazol-5-yl]-5H-pyrrolo[2,3-b]pyrazine], the IC50 on FLT3-ITD and against FLT3-D835Y was 0.0001 to 1 µM throughout.
With `FC(F)(F)Cn1cc(-c2cnc3[nH]cc(-c4ccc5ncn(C6CCCNC6)c5c4)c3n2)cn1` (stereo not drawn) [P-258, 7-[3-(3-piperidyl)benzimidazol-5-yl]-2-[1-(2,2,2-trifluoroethyl)pyrazol-4-yl]-5H-pyrrolo[2,3-b]pyrazine], the IC50 on FLT3-ITD and against FLT3-D835Y was 0.0001 to 1 µM each time.
In the case of `CC(C)(C)n1cnc2ccc(-c3c[nH]c4ncc(-c5ccc(F)c(C#N)c5)nc34)cc21` [P-230, 5-[7-(3-tert-butylbenzimidazol-5-yl)-5H-pyrrolo[2,3-b]pyrazin-2-yl]-2-fluoro-benzonitrile], the IC50 against FLT3-ITD and against FLT3-D835Y was 0.0001 to 1 µM each time.
With `CCCS(=O)(=O)Nc1cccc(-c2cnc3[nH]cc(-c4ccc5ncn(C(C)(C)C)c5c4)c3c2)c1` [P-216, N-[3-[3-(3-tert-butylbenzimidazol-5-yl)-1H-pyrrolo[2,3-b]pyridin-5-yl]phenyl]propane-1-sulfonamide], the IC50 against FLT3-ITD and at FLT3-D835Y was 0.0001 to 1 µM each time.
For the compound `CC(C)(C)n1cnc2ccc(-c3c[nH]c4ncc(-c5cnn(CC(F)(F)F)c5)nc34)cc21` [P-256, 7-(3-tert-butylbenzimidazol-5-yl)-2-[1-(2,2,2-trifluoroethyl)pyrazol-4-yl]-5H-pyrrolo[2,3-b]pyrazine], the IC50 at FLT3-ITD and against FLT3-D835Y was 0.0001 to 1 µM each time.
For `CC(C)(C)n1cnc2ccc(-c3c[nH]c4ncc(C#Cc5cccc(C#N)c5)cc34)cc21` [P-242, 3-[2-[3-(3-tert-butylbenzimidazol-5-yl)-1H-pyrrolo[2,3-b]pyridin-5-yl]ethynyl]benzonitrile], the IC50 on FLT3-ITD and against FLT3-D835Y was 0.0001 to 1 µM in each case.
As for `C#Cc1cnc2[nH]cc(-c3ccc4ncn(C(C)(C)C)c4c3)c2c1` [P-244, 1-tert-butyl-6-(5-ethynyl-1H-pyrrolo[2,3-b]pyridin-3-yl)benzimidazole], the IC50 on FLT3-ITD and at FLT3-D835Y was 0.0001 to 1 µM each time.
Consider `CCCS(=O)(=O)Nc1cccc(-c2cnc3[nH]cc(-c4ccc5ncn(C6CCCNC6)c5c4)c3c2)c1` (stereo not drawn) [P-217, N-[3-[3-[3-(3-piperidyl)benzimidazol-5-yl]-1H-pyrrolo[2,3-b]pyridin-5-yl]phenyl]propane-1-sulfonamide], for which the IC50 at FLT3-ITD and against FLT3-D835Y was 0.0001 to 1 µM throughout.
Turning to `COc1cc(-c2cnc3[nH]cc(-c4ccc5ncn(C(C)(C)C)c5c4)c3c2)ccn1` [P-106, 1-tert-butyl-6-[5-(2-methoxy-4-pyridyl)-1H-pyrrolo[2,3-b]pyridin-3-yl]benzimidazole], the concentration for half-maximal inhibition (IC50) against FLT3-ITD and on FLT3-D835Y was 0.0001 to 1 µM each time.
For the compound `CC(C)(C)n1cnc2ccc(-c3c[nH]c4ncc(C#Cc5cccc(OC(F)(F)F)c5)nc34)cc21` [P-249, 7-(3-tert-butylbenzimidazol-5-yl)-2-[2-[3-(trifluoromethoxy)phenyl]ethynyl]-5H-pyrrolo[2,3-b]pyrazine], the IC50 against FLT3-ITD and at FLT3-D835Y was 0.0001 to 1 µM in each case.
For `COc1cc(-c2cnc3[nH]cc(-c4ccc5ncn(C(C)(C)CO)c5c4)c3n2)ccn1` [P-186, 2-[6-[2-(2-methoxy-4-pyridyl)-5H-pyrrolo[2,3-b]pyrazin-7-yl]benzimidazol-1-yl]-2-methyl-propan-1-ol], the IC50 against FLT3-ITD and against FLT3-D835Y was 0.0001 to 1 µM each time.
For the compound `CC(C)(C)n1cnc2ccc(-c3c[nH]c4ncc(-c5cccc(S(=O)(=O)N6CCCC6)c5)nc34)cc21` [P-229, 7-(3-tert-butylbenzimidazol-5-yl)-2-(3-pyrrolidin-1-ylsulfonylphenyl)-5H-pyrrolo[2,3-b]pyrazine], the IC50 against FLT3-ITD and on FLT3-D835Y was 0.0001 to 1 µM each time.
For `O=S(=O)(c1cccc(-c2cnc3[nH]cc(-c4ccc5ncn(C6CCCNC6)c5c4)c3c2)c1)N1CCCC1` (stereo not drawn) [P-222, 1-(3-piperidyl)-6-[5-(3-pyrrolidin-1-ylsulfonylphenyl)-1H-pyrrolo[2,3-b]pyridin-3-yl]benzimidazole], the IC50 at FLT3-ITD and at FLT3-D835Y was 0.0001 to 1 µM each time.
